Earlier results on one compound are cited in patent US10806768B2, “Composition for promoting metallothionein production” (priority 2016, dated 2020).

Consider `CC(=O)N[C@@H](CS)C(=O)O` [NAC, N-Acetyl-Cysteine], for which, where the note is “only at a trend level of significance, p=0.09”, the “oxidative glutathione disulfide (GSSG) level, NAC group” value is recorded as “increased”. In addition, the “CGI-I, NAC versus placebo groups” value (p>0.69) is recorded as “no statistically significant difference”. Moreover, under “versus placebo, p<0.05”, the “glutathione (GSH) level in blood, NAC group” value is recorded as “significantly higher”. Where the note is “week 12”, the “DNA strand break and oxidative damage, NAC versus placebo groups” value is listed as “no significant difference”; the “GSH/GSSG ratio, NAC versus placebo groups” value is “no significant difference”; the “blood homocysteine levels, NAC versus placebo groups” value is reported as “no significant difference”.
